{"source": "patent US7012098B2", "about": "“Inhibitors of inducible nitric oxide synthase for chemoprevention and treatment of cancers” (Pharmacia Corporation, priority 2001, dated 2006)", "assay_type_in_all_cases": "in vivo, male F344 rats", "key": {"[1]": {"molecular_target": "T1, COX-1 (Rattus norvegicus, UniProt Q63921)", "T1 sequence (Q63921 27-602)": "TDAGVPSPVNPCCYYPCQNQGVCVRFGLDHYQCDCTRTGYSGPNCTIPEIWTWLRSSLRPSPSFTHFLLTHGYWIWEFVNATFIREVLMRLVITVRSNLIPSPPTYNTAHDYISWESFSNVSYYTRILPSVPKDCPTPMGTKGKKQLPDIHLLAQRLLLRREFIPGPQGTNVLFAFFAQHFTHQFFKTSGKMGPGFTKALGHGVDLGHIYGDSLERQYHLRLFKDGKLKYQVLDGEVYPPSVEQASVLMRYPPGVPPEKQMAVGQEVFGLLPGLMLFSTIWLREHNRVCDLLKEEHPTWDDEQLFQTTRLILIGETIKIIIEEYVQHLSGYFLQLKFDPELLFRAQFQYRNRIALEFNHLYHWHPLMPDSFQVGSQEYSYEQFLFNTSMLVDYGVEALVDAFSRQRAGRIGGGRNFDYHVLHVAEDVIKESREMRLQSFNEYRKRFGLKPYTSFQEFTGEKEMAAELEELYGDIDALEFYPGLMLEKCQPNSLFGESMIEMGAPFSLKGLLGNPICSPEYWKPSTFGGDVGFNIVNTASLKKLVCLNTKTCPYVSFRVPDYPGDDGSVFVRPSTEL", "test": "Colonic mucosal COX-1 activity after dietary treatment", "conditions": "100 ppm in diet; AOM-treated rats, colonic mucosa; Mean ± SEM", "method": "(§1) For determining COX-2 activity, proteins were preincubated with 50 μM of aspirin to block the activity of COX-1. After incubation at 37° C. for 15 min, the reaction was terminated by adding 40 μl of 0.2 M HCl. The COX-mediated metabolites of arachidonic acid were extracted with ethyl acetate (3×0.5 ml). The combined extracts were evaporated to dryness under N2, redissolved in chloroform, and subjected to thin layer chromatography on precoated TLC plastic plates (silica G 60, 20×20 cm, layer thickness 150 μm). […] The metabolites of ^14C-AA corresponding to PGE2, PGF2α, PGD2, 6-Keto PGF1α, and TXB2 were detected by their comigration (Rf-values) with authentic standards. The area of each metabolite was determined in a Bioscan System 200 image scanning counter (Bioscan Inc., Washington, D.C.) equipped with β-detector."}, "[2]": {"molecular_target": "T2, COX-2 (Rattus norvegicus, UniProt P35355)", "T2 sequence (P35355 18-604)": "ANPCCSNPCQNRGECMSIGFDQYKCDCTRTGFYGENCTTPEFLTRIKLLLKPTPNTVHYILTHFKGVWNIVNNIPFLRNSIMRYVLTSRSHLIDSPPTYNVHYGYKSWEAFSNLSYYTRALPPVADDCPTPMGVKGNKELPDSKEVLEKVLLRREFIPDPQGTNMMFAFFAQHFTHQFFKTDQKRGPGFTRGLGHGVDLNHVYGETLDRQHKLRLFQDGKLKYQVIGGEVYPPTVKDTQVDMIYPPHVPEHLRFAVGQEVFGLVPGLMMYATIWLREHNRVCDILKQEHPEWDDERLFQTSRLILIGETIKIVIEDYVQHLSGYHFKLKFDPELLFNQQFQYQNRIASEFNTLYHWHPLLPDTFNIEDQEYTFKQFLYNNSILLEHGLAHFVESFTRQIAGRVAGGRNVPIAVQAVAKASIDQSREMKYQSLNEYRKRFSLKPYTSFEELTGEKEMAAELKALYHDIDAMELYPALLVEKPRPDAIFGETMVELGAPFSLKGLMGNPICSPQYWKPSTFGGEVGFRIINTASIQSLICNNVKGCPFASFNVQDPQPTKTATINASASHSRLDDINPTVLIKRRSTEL", "test": "Colonic mucosal COX-2 activity after dietary treatment", "conditions": "100 ppm in diet; AOM-treated rats, colonic mucosa; Mean ± SEM", "method": "as §1"}, "[3]": {"molecular_target": "iNOS (Rattus norvegicus, UniProt Q06518)", "test": "Colonic mucosal iNOS activity after dietary treatment", "method": "In Vivo Assay of Modulation of Colonic Mucosal Activities of NOS and COX isoforms by iNOS and COX-2 Inhibitors\nNOS and iNOS activities were determined in colonic samples as prepared and described above. Conversion of L-arginine to L-citrulline was measured by a modification of an earlier described method (Rao et al, Carcinogenesis 21, supra; Ambs et al., Cancer Res. 58:334-41, 1998, which is herein incorporated by reference). The assay was carried out by adding 100 μg sample protein to 150 μl of assay buffer [50 mM HEPES, 1 mM DTT, 1 mM MgCl2, 5 mg/L pepstatin A, 0.1 mM PMSF, and 3 mg/L aprotinin, pH 7.4] containing 70 μM arginine, 250,000 dpm L-[^3H]-arginine, 2 mM NADPH, 5μM tetrahydro biopterin, 5 μM flavin adenine dinucleotide, and 0.5 mM CaCi2 to measure total NOS activity, or 1 mM EGTA (without calcium) to determine Ca+^2-independent iNOS activity. After 30 min at 37° C., the reaction was stopped with 100 μl of 1M trichloroacetic acid. Then the samples were adjusted to pH 4.6 by adding 500 μl of 20 mM HEPES and loaded on to Dowex AG 50W-X8 resin columns. L-[^3H]-citrulline was eluted and separated on TLC. Radioactivity was counted by a BioScan Radiomatic detector. Results are expressed as pmol L-[^3H]-citrulline released/mg protein/min."}}, "note": "Structures can show the parent of a compound that is named as a salt."}
{"smiles": "CC(=N)NCCCC[C@H](N)C(=O)Nc1nnn[nH]1", "note": "[compound XI, 2S-amino-6-[(1-iminoethyl)amino]-N-(1H-tetrazol-5-yl)hexanamide, hydrate, dihydrochloride]", "values": [{"measurement": "COX-Activity, COX-1", "setting": "[1]", "value": "11.3 ± 1.4 pmoles [^14C]-AA metabolized/m"}, {"measurement": "COX-Activity, COX-2", "setting": "[2]", "value": "1.8 ± 0.3 pmoles [^14C]-AA metabolized/m"}, {"measurement": "suppression of AOM-induced colonic mucosal iNOS activity", "setting": "[3]; 100 ppm", "value": "~37", "unit": "%"}, {"measurement": "NOS Activity, iNOS", "setting": "[3]; 100 ppm in diet, AOM-treated rats, colonic mucosa, Mean ± SEM", "value": "1.6 ± 0.2 pmoles [^3H]-citrulline/mg pro"}]}
